{"source": "patent US6066616A", "about": "“Somatostatin analogue composition and use in treating breast cancer” (Novartis AG, priority 1987, dated 2000)", "assay": "tolerated dose of octreotide", "settings": "in vivo", "procedure": "Thus for octreotide, GI tumours may be treated initially with 0.05 mg once or twice a day by sub-cutaneous injection. Dosage can be increased to 0.2 mg three times daily. For acromegaly daily doses of from 100 to 300 μg s.c. may be used. Octreotide is tolerated at least to 1 mg."}
{"smiles": "C[C@@H](O)[C@@H]1NC(=O)[C@H](CCCCN)NC(=O)[C@@H](Cc2c[nH]c3ccccc23)NC(=O)[C@H](Cc2ccccc2)NC(=O)[C@@H](NC(=O)[C@H](N)Cc2ccccc2)CSSC[C@@H](C(=O)N[C@H](CO)[C@@H](C)O)NC1=O", "note": "[Octreotide, octreotide]", "values": [{"measurement": "tolerated dose", "result": "≥ 1", "unit": "mg"}]}
